In the supplement of paper PMC5908809:

Assays:
[1] = tested on: normal NK cells expanded with K562-aAPC; test: drug sensitivity score (DSS) (DSS units); higher = more sensitive; extreme values may be limits of the assay; conditions: 72 h; IL-2 2.5 ng/mL
Method: (§1)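 Drug sensitivity and resistance testing on K562-aAPC-expanded normal NK cells: 5 concentrations (10-fold steps over a 10,000-fold range), 72 h at 37 °C, viability by CellTiter-Glo normalised to DMSO and benzethonium chloride controls; DSS from the fitted curve.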

NKL (IL-2 2.5 ng/mL) [2] = test: as above; conditions: 72 h
[3] = tested on: normal primary NK cells, pool 2 (3 donors) (IL-2 2.5 ng/mL); test: as above; conditions: 72 h
[4] = tested on: normal primary NK cells, pool 1 (3 donors) (IL-2 2.5 ng/mL); test: as above; conditions: 72 h
KHYG-1 (IL-2 2.5 ng/mL) [5] = test: as above; conditions: 72 h
NK-92 (IL-2 2.5 ng/mL) [6] = test: as above; conditions: 72 h
YT (IL-2 2.5 ng/mL) [7] = test: as above; conditions: 72 h
IMC-1 (IL-2 20 ng/mL) [8] = test: as above; conditions: 72 h
[9] = tested on: normal primary NK cells, pool 3 (3 donors) (IL-2 2.5 ng/mL); test: as above; conditions: 72 h
NK-YS (IL-2 2.5 ng/mL) [10] = test: as above; conditions: 72 h
KAI3 (IL-2 2.5 ng/mL) [11] = test: as above; conditions: 72 h
DERL-7 (IL-2 2.5 ng/mL) [12] = test: as above; conditions: 72 h
[13] = tested on: normal primary NK cells, pool 1 (3 donors), resting (IL-2 0 ng/mL); test: as above; conditions: 72 h
SNK-6 (IL-2 2.5 ng/mL) [14] = test: as above; conditions: 72 h
[15] = tested on: normal NK cells expanded with K562-aAPC; test: percent inhibition of viability; higher = more inhibition; conditions: 72 h, IL-2 2.5 ng/mL
Method: as §1

NKL (IL-2 2.5 ng/mL) [16] = test: as above; conditions: 72 h
[17] = tested on: normal primary NK cells, pool 2 (3 donors) (IL-2 2.5 ng/mL); test: as above; conditions: 72 h
[18] = tested on: normal primary NK cells, pool 1 (3 donors) (IL-2 2.5 ng/mL); test: as above; conditions: 72 h
KHYG-1 (IL-2 2.5 ng/mL) [19] = test: as above; conditions: 72 h
NK-92 (IL-2 2.5 ng/mL) [20] = test: as above; conditions: 72 h
YT (IL-2 2.5 ng/mL) [21] = test: as above; conditions: 72 h
IMC-1 (IL-2 20 ng/mL) [22] = test: as above; conditions: 72 h
[23] = tested on: normal primary NK cells, pool 3 (3 donors) (IL-2 2.5 ng/mL); test: as above; conditions: 72 h
NK-YS (IL-2 2.5 ng/mL) [24] = test: as above; conditions: 72 h
KAI3 (IL-2 2.5 ng/mL) [25] = test: as above; conditions: 72 h
DERL-7 (IL-2 2.5 ng/mL) [26] = test: as above; conditions: 72 h
[27] = tested on: normal primary NK cells, pool 1 (3 donors), resting (IL-2 0 ng/mL); test: as above; conditions: 72 h
SNK-6 (IL-2 2.5 ng/mL) [28] = test: as above; conditions: 72 h

O=C(NOCCO)c1ccc2cncn2c1Nc1ccc(I)cc1F [GDC-0623] (max concentration tested 2500 nM)
Conditions	drug sensitivity score
DERL-7 (IL-2 2.5 ng/mL) [12]	4.82
IMC-1 (IL-2 20 ng/mL) [8]	0.89
KAI3 (IL-2 2.5 ng/mL) [11]	2.53
KHYG-1 (IL-2 2.5 ng/mL) [5]	13
NK-92 (IL-2 2.5 ng/mL) [6]	0.89
NK-YS (IL-2 2.5 ng/mL) [10]	0.81
NKL (IL-2 2.5 ng/mL) [2]	16.7
SNK-6 (IL-2 2.5 ng/mL) [14]	0
YT (IL-2 2.5 ng/mL) [7]	0
[1]	0
[3]	0.54
[4]	0.57
[9]	0
[13]	0.97

percent inhibition of viability [%]
Conditions	0.25 nM	2.5 nM	25 nM	250 nM	2500 nM
DERL-7 (IL-2 2.5 ng/mL) [26]	1.53	2.87	4.11	20.2	49.3
IMC-1 (IL-2 20 ng/mL) [22]	-4.83	-0.98	-7.63	-7.39	-5.55
KAI3 (IL-2 2.5 ng/mL) [25]	-1.35	0.84	4.63	16.2	24.8
KHYG-1 (IL-2 2.5 ng/mL) [19]	-2.63	1.52	26.2	53.6	53.1
NK-92 (IL-2 2.5 ng/mL) [20]	-2.15	-3.76	-6.69	-7.14	-20.9
NK-YS (IL-2 2.5 ng/mL) [24]	-3.81	-3.05	2.89	12.4	10.4
NKL (IL-2 2.5 ng/mL) [16]	-5.9	-3.61	37.9	65.4	62.6
SNK-6 (IL-2 2.5 ng/mL) [28]	6.88	-4.38	-13.8	-14.5	-33.3
YT (IL-2 2.5 ng/mL) [21]	0.15	-1.83	-0.28	6.96	-0.89
[15]	-1.46	-4.58	0.15	3.69	-1.38
[17]	0.23	-3.52	5.29	8.89	14.6
[18]	-9.21	-4.95	0.24	3.46	15.2
[23]	-5.35	-2.96	-2.99	19.2	1.26
[27]	-7.6	7.27	7.92	9.81	15.9

O=C(CCCCCCC(=O)Nc1ccc([C@H]2O[C@@H](CSc3nc(-c4ccccc4)c(-c4ccccc4)o3)C[C@@H](c3ccc(CO)cc3)O2)cc1)NO [Tubacin] (max concentration tested 10000 nM)
Conditions	drug sensitivity score
DERL-7 (IL-2 2.5 ng/mL) [12]	7.93
IMC-1 (IL-2 20 ng/mL) [8]	6.44
KAI3 (IL-2 2.5 ng/mL) [11]	6.87
KHYG-1 (IL-2 2.5 ng/mL) [5]	4.84
NK-92 (IL-2 2.5 ng/mL) [6]	6.62
NK-YS (IL-2 2.5 ng/mL) [10]	5.76
NKL (IL-2 2.5 ng/mL) [2]	8.82
SNK-6 (IL-2 2.5 ng/mL) [14]	7.71
YT (IL-2 2.5 ng/mL) [7]	5.78
[1]	3.3
[3]	0.95
[4]	2.14
[9]	0.27
[13]	3.59

percent inhibition of viability [%]
Conditions	1 nM	10 nM	100 nM	1000 nM	10000 nM
DERL-7 (IL-2 2.5 ng/mL) [26]	-2.36	4.2	7.74	19.8	86.6
IMC-1 (IL-2 20 ng/mL) [22]	-1.32	0.91	3.12	6.34	99
KAI3 (IL-2 2.5 ng/mL) [25]	-2.25	-0.51	-0.15	12	87.7
KHYG-1 (IL-2 2.5 ng/mL) [19]	-2.84	-3.16	1.24	0.88	84.9
NK-92 (IL-2 2.5 ng/mL) [20]	-7.58	4.48	12.8	18.2	74.3
NK-YS (IL-2 2.5 ng/mL) [24]	-6.18	-3.18	-0.57	4.16	93.2
NKL (IL-2 2.5 ng/mL) [16]	-14.5	-0.93	-1.27	28.3	86.2
SNK-6 (IL-2 2.5 ng/mL) [28]	-5.06	2.23	22.3	16.9	89.8
YT (IL-2 2.5 ng/mL) [21]	0.56	0.68	3.58	5.84	88.3
[15]	-0.3	4.86	3.67	7.82	40.4
[17]	-4.13	-4.61	0.44	0.6	24
[18]	2.38	1.13	3.02	-4.6	47.5
[23]	-6.56	-3.63	5.33	-0.47	15.8
[27]	-6.72	-11.8	5.02	-11.8	77.7
